Results as given in PubChem BioAssay (NCI).
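Test compounds were applied to cells in 96-well plates for 48 hours at 5 doses. GI50 marks 50% less growth. The concentration for full growth arrest is given as TGI.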

Legend:
Test in all cases: DTP human tumour cell line panel, 48 h
DU-145 prostate = tested on: DU-145 prostate
SF-539 CNS = tested on: SF-539 CNS
NCI-H23 lung = tested on: NCI-H23 lung
786-0 renal = tested on: 786-0 renal
MDA-MB-435 = tested on: MDA-MB-435
TK-10 renal = tested on: TK-10 renal
SR leukemia = tested on: SR leukemia
OVCAR-4 ovarian = tested on: OVCAR-4 ovarian
KM12 colon = tested on: KM12 colon
NCI-H522 lung = tested on: NCI-H522 lung
HCC-2998 colon = tested on: HCC-2998 colon
SNB-75 CNS = tested on: SNB-75 CNS
MDA-MB-231 breast = tested on: MDA-MB-231 breast
T-47D breast = tested on: T-47D breast
SN12C renal = tested on: SN12C renal
MOLT-4 leukemia = tested on: MOLT-4 leukemia
A498 renal = tested on: A498 renal
ACHN renal = tested on: ACHN renal
UACC-257 melanoma = tested on: UACC-257 melanoma
HCT-15 colon = tested on: HCT-15 colon
EKVX NSCLC = tested on: EKVX NSCLC
NCI-H226 lung = tested on: NCI-H226 lung
BT-549 breast = tested on: BT-549 breast
PC-3 prostate = tested on: PC-3 prostate
HT29 colon = tested on: HT29 colon
RXF 393 renal = tested on: RXF 393 renal
CAKI-1 renal = tested on: CAKI-1 renal
HOP-92 NSCLC = tested on: HOP-92 NSCLC
SK-MEL-28 melanoma = tested on: SK-MEL-28 melanoma
MCF7 breast = tested on: MCF7 breast
COLO 205 colon = tested on: COLO 205 colon
MALME-3M melanoma = tested on: MALME-3M melanoma
HS 578T breast = tested on: HS 578T breast
UO-31 renal = tested on: UO-31 renal
SK-OV-3 ovarian = tested on: SK-OV-3 ovarian
SF-295 CNS = tested on: SF-295 CNS
LOX IMVI melanoma = tested on: LOX IMVI melanoma
UACC-62 melanoma = tested on: UACC-62 melanoma
M14 melanoma = tested on: M14 melanoma
SW-620 colon = tested on: SW-620 colon
IGROV1 ovarian = tested on: IGROV1 ovarian
OVCAR-8 ovarian = tested on: OVCAR-8 ovarian
K-562 leukemia = tested on: K-562 leukemia
RPMI-8226 leukemia = tested on: RPMI-8226 leukemia
OVCAR-3 ovarian = tested on: OVCAR-3 ovarian
SNB-19 CNS = tested on: SNB-19 CNS
SF-268 CNS = tested on: SF-268 CNS
NCI-H460 lung = tested on: NCI-H460 lung
OVCAR-5 ovarian = tested on: OVCAR-5 ovarian
CCRF-CEM leukemia = tested on: CCRF-CEM leukemia
HOP-62 NSCLC = tested on: HOP-62 NSCLC
HL-60(TB) leukemia = tested on: HL-60(TB) leukemia
NCI/ADR-RES ovarian = tested on: NCI/ADR-RES ovarian
SK-MEL-2 melanoma = tested on: SK-MEL-2 melanoma
MDA-MB-468 breast = tested on: MDA-MB-468 breast
HCT-116 colon = tested on: HCT-116 colon

`COc1cc2cc(C(=O)N3C[C@@H](CCl)c4c3cc(OC(=O)N(C)CCSSCCN3CCOCC3)c3ccccc43)[nH]c2c(OC)c1OC` showed a GI50 (DU-145 prostate) of 34.1 nM, a TGI (DU-145 prostate) of over 25000 nM and a GI50 (SF-539 CNS) of 25.7 nM. It also gave a TGI (SF-539 CNS) of 116 nM, a GI50 (NCI-H23 lung) of 33.3 nM and a TGI (NCI-H23 lung) of 164 nM. For the same compound, the GI50 (786-0 renal) was 196 nM, the TGI (786-0 renal) was 1050 nM and the GI50 (MDA-MB-435) was 141 nM. It also gave a TGI (MDA-MB-435) of 361 nM, a GI50 (TK-10 renal) of 819 nM and a TGI (TK-10 renal) of 3120 nM. It also gave a GI50 (SR leukemia) of 19.7 nM, a TGI (SR leukemia) of over 25000 nM and a GI50 (OVCAR-4 ovarian) of 621 nM. It also gave a TGI (OVCAR-4 ovarian) of 1830 nM, a GI50 (KM12 colon) of 286 nM and a TGI (KM12 colon) of over 8850 nM. It also gave a GI50 (NCI-H522 lung) of 1330 nM, a TGI (NCI-H522 lung) of 7370 nM and a GI50 (HCC-2998 colon) of 154 nM. For the same compound, the TGI (HCC-2998 colon) was 575 nM, the GI50 (SNB-75 CNS) was 348 nM and the TGI (SNB-75 CNS) was 921 nM. For the same compound, the GI50 (MDA-MB-231 breast) was 270 nM, the TGI (MDA-MB-231 breast) was 1180 nM and the GI50 (T-47D breast) was 1010 nM. The TGI (T-47D breast) was 5720 nM, the GI50 (SN12C renal) was 69 nM and the TGI (SN12C renal) was 1920 nM. It also gave a GI50 (MOLT-4 leukemia) of 51.9 nM, a TGI (MOLT-4 leukemia) of over 25000 nM and a GI50 (A498 renal) of 272 nM. For the same compound, the TGI (A498 renal) was 1330 nM, the GI50 (ACHN renal) was 19.3 nM and the TGI (ACHN renal) was 554 nM. For the same compound, the GI50 (UACC-257 melanoma) was 642 nM, the TGI (UACC-257 melanoma) was 4320 nM and the GI50 (HCT-15 colon) was 335 nM. For the same compound, the TGI (HCT-15 colon) was 2990 nM, the GI50 (EKVX NSCLC) was 178 nM and the TGI (EKVX NSCLC) was 844 nM. For the same compound, the GI50 (NCI-H226 lung) was 29.5 nM, the TGI (NCI-H226 lung) was 122 nM and the GI50 (BT-549 breast) was 66.5 nM. It also gave a TGI (BT-549 breast) of 330 nM, a GI50 (PC-3 prostate) of 214 nM and a TGI (PC-3 prostate) of over 25000 nM. For the same compound, the GI50 (HT29 colon) was 496 nM, the TGI (HT29 colon) was over 8760 nM and the GI50 (RXF 393 renal) was 28 nM. The TGI (RXF 393 renal) was 95.1 nM, the GI50 (CAKI-1 renal) was 137 nM and the TGI (CAKI-1 renal) was 5730 nM. For the same compound, the GI50 (HOP-92 NSCLC) was 1130 nM, the TGI (HOP-92 NSCLC) was over 18600 nM and the GI50 (SK-MEL-28 melanoma) was 128 nM. The TGI (SK-MEL-28 melanoma) was 293 nM, the GI50 (MCF7 breast) was 45.7 nM and the TGI (MCF7 breast) was 2240 nM. For the same compound, the GI50 (COLO 205 colon) was 1150 nM, the TGI (COLO 205 colon) was 2680 nM and the GI50 (MALME-3M melanoma) was 229 nM. For the same compound, the TGI (MALME-3M melanoma) was 673 nM, the GI50 (HS 578T breast) was 627 nM and the TGI (HS 578T breast) was 1970 nM. The GI50 (UO-31 renal) was 69.2 nM, the TGI (UO-31 renal) was 452 nM and the GI50 (SK-OV-3 ovarian) was 107 nM. For the same compound, the TGI (SK-OV-3 ovarian) was 925 nM, the GI50 (SF-295 CNS) was 87.2 nM and the TGI (SF-295 CNS) was 1470 nM. For the same compound, the GI50 (LOX IMVI melanoma) was 41.7 nM, the TGI (LOX IMVI melanoma) was 334 nM and the GI50 (UACC-62 melanoma) was 130 nM. The TGI (UACC-62 melanoma) was 482 nM, the GI50 (M14 melanoma) was 69.9 nM and the TGI (M14 melanoma) was 318 nM. The GI50 (SW-620 colon) was 865 nM, the TGI (SW-620 colon) was over 25000 nM and the GI50 (IGROV1 ovarian) was 358 nM. The TGI (IGROV1 ovarian) was 1460 nM, the GI50 (OVCAR-8 ovarian) was 125 nM and the TGI (OVCAR-8 ovarian) was 1520 nM. For the same compound, the GI50 (K-562 leukemia) was 608 nM, the TGI (K-562 leukemia) was over 25000 nM and the GI50 (RPMI-8226 leukemia) was 1000 nM. It also gave a TGI (RPMI-8226 leukemia) of over 25000 nM, a GI50 (OVCAR-3 ovarian) of 575 nM and a TGI (OVCAR-3 ovarian) of 1630 nM. The GI50 (SNB-19 CNS) was 95 nM, the TGI (SNB-19 CNS) was 2550 nM and the GI50 (SF-268 CNS) was 45.4 nM. For the same compound, the TGI (SF-268 CNS) was over 25000 nM, the GI50 (NCI-H460 lung) was 26.3 nM and the TGI (NCI-H460 lung) was over 9660 nM. The GI50 (OVCAR-5 ovarian) was 228 nM, the TGI (OVCAR-5 ovarian) was 1060 nM and the GI50 (CCRF-CEM leukemia) was 281 nM. For the same compound, the TGI (CCRF-CEM leukemia) was over 25000 nM, the GI50 (HOP-62 NSCLC) was 29.4 nM and the TGI (HOP-62 NSCLC) was 511 nM. The GI50 (HL-60(TB) leukemia) was 251 nM, the TGI (HL-60(TB) leukemia) was 4950 nM and the GI50 (NCI/ADR-RES ovarian) was 362 nM. For the same compound, the TGI (NCI/ADR-RES ovarian) was 1290 nM, the GI50 (SK-MEL-2 melanoma) was 210 nM and the TGI (SK-MEL-2 melanoma) was 463 nM. The GI50 (MDA-MB-468 breast) was 133 nM, the TGI (MDA-MB-468 breast) was 505 nM and the GI50 (HCT-116 colon) was 612 nM. For the same compound, the TGI (HCT-116 colon) was over 25000 nM.
